Measured values from publication PMC7613620, “Reaction hijacking of tyrosine tRNA synthetase as a whole-of-life-cycle antimalarial strategy” (Science (New York, N.Y.), 2022).
Where two headings read alike, the source gives them in different places.

Assays:
[1] = system: aptamer-regulatable control line; test: Growth inhibition of aptamer-regulatable control line (luciferase, 72 h); assay type: cell-based, Plasmodium falciparum
Description: (§1) 677 parasites using CRISPR-Cas9 and homology-driven repair (55, 56). A line harbourbing an aptamer-
678 regulatable fluorescent protein (eYFP) integrated in the cg6 locus is used as the control (55). […]
(§2) 696 Stock solutions of ML901, DHA or borrelidin (Cayman Chemicals) were dispensed into 96-well U-bottom
(§3) 697 BD Falcon™ plates and serially diluted in complete medium to yield final concentrations ranging from 20-
(§4) 698 0.08 nM. Synchronous ring-stage YRScyt conditional knockdown line and the aptamer-regulatable control
(§5) 699 line in varying aTc concentrations (high = 50 or 500 nM, low = 1 nM, and no aTc) were distributed into
(§6) 700 the drug plate. Lowest drug treatment and a lethal dose of chloroquine (200 nM) served as reference
(§7) 701 controls. Growth inhibition was analysed after 72 h using the Renilla-Glo(R) Luciferase Assay System (ref
(§8) 702 no E2750 Promega) and the GloMax® Discover Multimode Microplate Reader (Promega), and IC50 values
(§9) 703 were obtained from corrected dose-response curves using GraphPad Prism (version 8; GraphPad Software). […]
(§10) 706 CRISPR/Cas9 was used to generate parasites encoding the S234C mutation in exon 2 of PfYRS, as shown
(§11) 707 in Suppl Figure 6. Two guide RNAs (gRNA1: […] and gRNA2:
(§12) 708 […]) were selected using Benchling (benchling.com), and cloned into the
709 pDC2-coCas9-gRNA plasmid essentially as described previously (58). A donor template of 645 bp, […]

PfYRS knockdown line = test: Growth inhibition of aptamer-regulatable PfYRS knockdown line (luciferase, 72 h); assay type: cell-based, Plasmodium falciparum; conditions: for IC50: Plasmodium falciparum
Source text: 674 Generation and analysis of PfYRS knock-down transfectants
675 A conditional regulatable line for the cytosolic PfYRS (PF3D7_0807900) was generated by integrating the
676 gene regulatable system, TetR-DOZI-RNA aptamer module at the 3'-end of the target gene, in P. falciparum
as §1
678 regulatable fluorescent protein (eYFP) integrated in the cg6 locus is used as the control (55). Transfection
679 into parasites was carried out by preloading RBCs with the donor vector as described previously (57).
680 Briefly, 50 μg of purified plasmid DNA was mixed with human RBCs and subjected to 8 square wave
681 electroporation pulses of 365 V for 1 ms each, separated by 0.1 s in a 0.2 cm cuvette. The plasmid DNA
682 preloaded cells were inoculated with NF54 expressing Cas9 and T7 RNA polymerase. […]
as §2, §3, §4, §5, §6, §7, §8, §9, §10, §11, §12
709 pDC2-coCas9-gRNA plasmid essentially as described previously (58). A donor template of 645 bp,
710 encompassing the majority of the 708 bp exon 2, was synthesized (ThermoFisher) and cloned into the
711 AatII/EcoRI sites of both the pDC2-coCas9-gRNA1 and pDC2-coCas9-gRNA2 plasmids. In addition to
712 the TCC>TGC (S234C) mutation, additional silent shield mutations were introduced to prevent gRNA-
713 Cas9 complex binding, as shown in Suppl Figure 6. Ring-stage P. falciparum parasites (Dd2 strain) at 10%
714 parasitemia (150 µL of packed cells) were transfected with 50 µg of plasmid DNA using a BioRad Gene
715 Pulser II (310 V, 950 µF), and selected with 5 nM WR99210 (Jacobus Pharmaceuticals) for 8 days, after
716 which culture was continued without drug pressure until transfectants were obtained. Clones of the
717 PfYRSS234C mutant parasites were isolated by limiting dilution and verified by Sanger sequencing.
719 Protein translation assay
720 P. falciparum Cam 3.II_Rev (25) schizont- (43-48 h p.i.) infected RBCs were pre-incubated with inhibitor
Using a modification of a published procedure (14), the
722 cells were labelled with O-propargyl-puromycin (OPP; 4 µM) for 1 h, washed 3x (PBS +3% serum) and
723 then fixed for 10 minutes (4% formaldehyde/0.02% glutaraldehyde in PBS). The click reaction was
724 performed for 1 h in the presence of CuSO4 (0.1 mM), THPTA (0.5 mM) and sodium ascorbate (5 mM) to
725 bring about azide-alkyne cycloaddition to Alexa Fluor 488 azide (0.1 µM). Flow cytometry was performed
726 using the FITC and Cy™5.5 channels to detect the Alexa Fluor 488 and PI, respectively.
729 Cam 3.II_Rev (25) trophozoite-infected RBCs (25-30 h p.i.) were incubated with inhibitor for 3 h at 10%
730 hematocrit and 5% parasitemia. The RBC pellet was washed 3 x in PBS + cOmplete. Cells were centrifuged
731 at 380 x g for 5 min and the pelleted cells lysed by resuspension in PBS + 0.05% saponin for 5 min on ice.

[2] = system: P. falciparum male gametes; test: Dual gamete formation assay (male); assay type: cell-based; conditions: Plasmodium falciparum
Description: 604 Activity against transmissible stages of P. falciparum
605 Activity against male gametes was assessed using the dual gamete formation assay (PfDGFA)(32).
(§13) 606 Compounds were incubated with mature stage V gametocytes ([…], kind gift from Professor Chris Janse
(§14) 607 at Leiden University Medical Center (LUMC), the Netherlands) for 48 hours in 384 well plates before
608 gamete formation was triggered by a drop in temperature and addition of xanthurenic acid. Male gamete
609 exflagellation was recorded and quantified by automated microscopy. The ability of female gametes to
(§15) 611 Multiple data sets using different gametocyte cultures were collected on each of two separate days.
(§16) 613 Activity against exoerythrocytic stages
614 Primary human hepatocytes (H1500.H15B+ Lot No. HC10-10 Cryopreserved human hepatocytes)
615 were cultured for 2 days and then overlaid with P. falciparum NF54 sporozoites and compounds.
616 Supernatant was refreshed daily with fresh compounds.

[3] = biological target: SUMO-activating enzyme (SAE) (Homo sapiens, UniProt Q9UBT2); test: biochemical; conditions: read-out: SAE IC50 HTRF
Chain of SUMO-activating enzyme (SAE) (Q9UBT2 whole entry): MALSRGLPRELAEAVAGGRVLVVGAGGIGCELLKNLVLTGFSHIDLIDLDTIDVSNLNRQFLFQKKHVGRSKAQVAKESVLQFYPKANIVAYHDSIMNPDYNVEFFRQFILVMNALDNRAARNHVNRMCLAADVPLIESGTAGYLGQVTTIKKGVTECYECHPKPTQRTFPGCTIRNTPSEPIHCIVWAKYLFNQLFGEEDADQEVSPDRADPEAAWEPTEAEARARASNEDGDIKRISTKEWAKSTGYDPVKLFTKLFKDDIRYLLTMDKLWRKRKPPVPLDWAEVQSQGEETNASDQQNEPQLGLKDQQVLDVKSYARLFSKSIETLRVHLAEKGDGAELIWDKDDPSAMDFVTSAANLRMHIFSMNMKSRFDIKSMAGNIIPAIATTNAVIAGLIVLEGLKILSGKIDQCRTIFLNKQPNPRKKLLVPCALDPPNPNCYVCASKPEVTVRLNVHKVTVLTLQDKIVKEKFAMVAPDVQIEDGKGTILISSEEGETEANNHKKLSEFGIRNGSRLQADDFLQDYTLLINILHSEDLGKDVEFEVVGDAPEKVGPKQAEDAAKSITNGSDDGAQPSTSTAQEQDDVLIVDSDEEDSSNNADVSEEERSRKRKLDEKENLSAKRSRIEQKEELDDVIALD
Chain of SUMO-activating enzyme (SAE) (Q9UBE0 whole entry partner): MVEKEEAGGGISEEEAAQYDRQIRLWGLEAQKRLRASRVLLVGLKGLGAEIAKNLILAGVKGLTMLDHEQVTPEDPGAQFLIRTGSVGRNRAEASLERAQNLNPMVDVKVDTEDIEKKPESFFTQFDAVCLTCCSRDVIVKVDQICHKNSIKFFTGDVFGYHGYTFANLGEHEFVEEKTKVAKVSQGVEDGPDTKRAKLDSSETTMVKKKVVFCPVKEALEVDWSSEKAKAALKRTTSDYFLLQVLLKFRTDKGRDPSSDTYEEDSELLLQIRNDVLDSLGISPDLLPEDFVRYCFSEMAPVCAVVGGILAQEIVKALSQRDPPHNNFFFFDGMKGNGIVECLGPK
Source text: 592 E1-E2 Transthiolation Assays
593 An Homogeneous Time-Resolved Fluorescence (HTRF) enzyme assay was employed to evaluate
594 compound activity against ATG7 as previously described (11). In this assay, a Flag-tagged ATG8 homolog
595 (GABA type A receptor-associated protein; GABARAP) is activated by ATG7 and then transthiolated to a
596 GST-tagged E2 (ATG3). The product of the enzyme reaction, Flag-GABARAP-ATG3-GST, is quantified
597 by measuring FRET between Europium-Cryptate labelled monoclonal anti-Flag M2 (CisBio International,
598 Cat# 61FG2KLB) and PHYCOLINK goat anti-GST allophycocyanin (Prozyme, PJ252p1). The activation
599 and transthiolation of ubiquitin by Ubiquitin Activating Enzyme, activation and transthiolation of NEDD8
600 by NEDD8 Activating Enzyme. […]
as §13, §14
608 gamete formation was triggered by a drop in temperature and addition of xanthurenic acid. […]
as §15, §16
614 Primary human hepatocytes (H1500.H15B+ Lot No. HC10-10 Cryopreserved human hepatocytes) […]

Nc1ncnc2c1c(OC(F)F)nn2[C@@H]1O[C@H](COS(N)(=O)=O)[C@@H](O)[C@H]1O [ML901]
Fold change in IC50 (high aTc/ no aTc), control line [1]: no change | IC50 ([1]; Plasmodium falciparum, read-out: IC50 against control line): 2.4 ± 0.2 nM | IC50 (PfYRS knockdown line; as stated in main text, aTc condition not given, read-out: IC50 against the knockdown parasites): 0.4 nM | IC50 (PfYRS knockdown line; high aTc (50 nM), read-out: IC50 against PfYRS knockdown line): 3.9 ± 0.9 nM | IC50 (PfYRS knockdown line; low aTc (1 nm), read-out: IC50 against PfYRS knockdown line): 0.5 ± 0.1 nM | IC50 (PfYRS knockdown line; no aTc, read-out: IC50 against PfYRS knockdown line): 0.3 ± 0.1 nM | Fold change in IC50 (high aTc/ no aTc), PfYRS knockdown line (PfYRS knockdown line; high aTc 50 nM): 13 | IC50 ([2]; 48 h incubation with stage V gametocytes): 130 ± 10 nM | inhibition at 25 µM ([2]; at 25 µM): 99% | IC50 [3]: > 1000 nM
